Our source for the IC50 values is ChEMBL document CHEMBL1145059, “Bispyridinium cyclophanes: novel templates for human choline kinase inhibitors” (J Med Chem, 2003).

A value given as a limit tells only on which side of the number the result lay.

For one assay, the target named is Choline kinase alpha (Homo sapiens, UniProt P35790). Description: Ex vivo inhibitory activity against human choline kinase was determined.
The subject of a further assay is HT-29. The assay is described as follows: In vitro inhibition of proliferation in ras transformed cells on the HT-29 (Human tumor) cell line. Type of assay: functional, cell-based.

Choline kinase alpha, sequence (P35790 whole entry): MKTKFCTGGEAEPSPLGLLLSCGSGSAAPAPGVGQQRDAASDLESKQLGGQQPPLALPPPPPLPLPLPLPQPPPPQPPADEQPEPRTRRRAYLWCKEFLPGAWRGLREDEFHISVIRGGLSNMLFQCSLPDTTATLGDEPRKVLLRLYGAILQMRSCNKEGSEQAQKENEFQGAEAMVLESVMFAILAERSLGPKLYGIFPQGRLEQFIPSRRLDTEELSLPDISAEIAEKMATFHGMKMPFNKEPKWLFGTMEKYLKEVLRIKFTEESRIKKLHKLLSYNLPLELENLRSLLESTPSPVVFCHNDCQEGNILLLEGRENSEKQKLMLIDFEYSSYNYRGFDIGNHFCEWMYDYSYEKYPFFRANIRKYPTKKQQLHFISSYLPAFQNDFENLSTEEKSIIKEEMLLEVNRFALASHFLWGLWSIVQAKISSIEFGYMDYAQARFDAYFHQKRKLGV

Usually IC50 stands for the concentration needed to halve the response being measured. For the compound `c1cc2ccc1CNc1cc[n+](cc1)Cc1ccc(cc1)C[n+]1ccc(cc1)NC2`, the results for the IC50 against Choline kinase alpha and in the assay with HT-29 were 2.1 µM and 36.9 µM, respectively. For `c1cc2cc(c1)C[n+]1ccc(cc1)NCc1ccc(cc1)CNc1cc[n+](cc1)C2`, in that order: 24.8 µM and 58.6 µM.

At Choline kinase alpha, `CN(c1ccc(Cl)cc1)c1cc[n+](Cc2cc(C[n+]3ccc(N(C)c4ccc(Cl)cc4)cc3)cc(C[n+]3ccc(N(C)c4ccc(Cl)cc4)cc3)c2)cc1` registered an IC50 of 1.4 µM. Take `c1cc2cc(c1)CNc1cc[n+](cc1)Cc1ccc(cc1)C[n+]1ccc(cc1)NC2`: the IC50 at Choline kinase alpha is 0.3 µM; with HT-29, 28.8 µM. For `c1cc2cc(c1)CNc1cc[n+](cc1)Cc1cccc(c1)C[n+]1ccc(cc1)NC2`, in that order: 13.2 µM and more than 100 µM.
